Measurements from ChEMBL document CHEMBL4414655, “Position Effect of Fatty Acid Modification on the Cytotoxicity and Antimetastasis Potential of the Cytotoxic Peptide Lycosin-I” (J Med Chem, 2019).
The source made the active and inactive calls. The rule behind the calls is not given here. Residues, ends and D or L forms follow the SMILES beside them. *: point of attachment. Lauroyl = CCCCCCCCCCCC(=O)*

How the values were obtained:
A549 [1] = assay: Induction of apoptosis in human A549 cells assessed as late apoptotic cells level at 2 uM incubated for 24 hrs by Annexin-V-FITC/PI staining based analysis (reference value: 2.27%); type: functional
B16-F10 [2] = assay: Anti-metastasis activity in mouse B16/F10 cells implanted in BALB/C mouse assessed as inhibition of lung metastatic nodules at 8 mg/kg, ip dosed every other day for 10 days and measured every 2 days by H and E staining based assay; type: functional, organism-based
A549 [3] = assay: Induction of apoptosis in human A549 cells assessed as early apoptotic cells level at 2 uM incubated for 24 hrs by Annexin-V-FITC/PI staining based analysis (reference value: 2.27%); type: functional
A549 [4] = assay: Anti-migration activity in human A549 cells at 0.5 to 1 uM incubated for 12 hrs by crystal violet staining based transwell migration assay; type: functional, cell-based
HEK-293T = assay: Cytotoxicity in human HEK293T cells assessed as reduction in cell viability incubated for 24 hrs by CCK8 assay; type: cell-based; details: Homo sapiens, HEK-293T
A549 [5] = assay: Inhibition of spheroids growth in human A549 cells 3D tumor spheroids at 10 to 20 uM treated on day 0 and measured on day 5 by CCK8 assay; type: functional, cell-based
A549 [6] = assay: Induction of cell membrane disruption in human A549 cells assessed as LDH release at 25 uM incubated for 30 mins by fluorescence based assay relative to control
U-87 MG = assay: Cytotoxicity in human U87 cells assessed as reduction in cell viability incubated for 24 hrs by CCK8 assay; type: functional, cell-based, U-87MG ATCC
A549 [7] = assay: Induction of apoptosis in human A549 cells assessed as necrotic cells level at 2 uM incubated for 24 hrs by Annexin-V-FITC/PI staining based analysis (reference value: 2.27%); type: functional
A549 [8] = assay: Cytotoxicity in human A549 cells assessed as reduction in cell viability incubated for 24 hrs by CCK8 assay; type: functional, cell-based; details: A549, 24 h
PC-3 = assay: Cytotoxicity in human PC3 cells assessed as reduction in cell viability incubated for 24 hrs by CCK8 assay; type: functional, cell-based; details: PC-3, 24 h
A549 [9] = assay: Cytotoxicity in human A549 cells assessed as reduction in cell viability at 0.39 to 25 uM pre-incubated in presence of 10% FBS for 48 hrs and measured after 24 hrs by CCK8 assay; type: functional, cell-based
A549 [10] = assay: Anti-migration activity in human A549 cells 3D tumor spheroids assessed as reduction in cell migration at 20 uM incubated for 48 hrs by gelatin based 3D spheroid based metastasis assay; type: functional
A549 [11] = assay: Induction of cell membrane disruption in human A549 cells at 4 uM incubated for 1 hr by AO/EB staining based fluorescence microscopy
A549 [12] = assay: Inhibition of colony formation n human A549 cells up to 10 uM incubated for 15 days by crystal violet staining based assay; type: functional, cell-based
MCF7 = assay: Cytotoxicity in human MCF7 cells assessed as reduction in cell viability incubated for 24 hrs by CCK8 assay; type: functional, cell-based; details: MCF7, 24 h
B16-F10 [13] = assay: Antitumor activity in mouse B16/F10 cells implanted in BALB/C mouse assessed as inhibition of tumor growth at 10 mg/kg, ip dosed every other day for 10 days and measured every 2 days; type: functional, organism-based
A549 [14] = assay: Induction of cell membrane disruption in human A549 cells at 4 uM incubated for 24 hrs by scanning electron microscopy; type: cell-based
L02 = assay: Cytotoxicity in human L02 cells assessed as reduction in cell viability incubated for 24 hrs by CCK8 assay; type: cell-based; details: L02, 24 h
SW-620 = assay: Cytotoxicity in human SW620 cells assessed as reduction in cell viability incubated for 24 hrs by CCK8 assay; type: functional, cell-based; details: SW-620, 24 h
[15] = Toxicity in mouse B16/F10 cells implanted BALB/C mouse assessed as effect on body weight at 10 mg/kg, ip dosed every other day for 10 days and measured every 5 days; type: organism-based; details: in vivo
HeLa = assay: Cytotoxicity in human HeLa cells assessed as reduction in cell viability incubated for 24 hrs by CCK8 assay; type: functional, cell-based
A549 [16] = assay: Anti-invasion activity in human A549 cells at 0.5 to 1 uM incubated for 12 hrs by crystal violet staining based Matrigel coated transwell invasion assay; type: functional, cell-based
[17] = Stability in mouse serum at 100 uM incubated for 24 hrs at 37 degC by MALDI-TOF MS analysis; type: ADME, cell-free
A549 [18] = assay: Induction of cell membrane disruption in human A549 cells assessed as LDH release at 3.25 uM incubated for 30 mins by fluorescence based assay relative to control
A549 [19] = assay: Cytotoxicity in human A549 cells 3D tumor spheroids assessed as reduction in cell viability at 5 to 10 uM treated on day 0 and measured on day 5 by CCK8 assay; type: functional, cell-based
A549 [20] = assay: Induction of cell membrane disruption in human A549 cells assessed as shrunken morphology with membrane lysis at 4 uM incubated for 24 hrs by scanning electron microscopy; type: cell-based
A549 [21] = assay: Cytotoxicity in human A549 cells assessed as reduction in cell viability at 1.56 to 12.5 uM at 4 degC incubated for 24 hrs by CCK8 assay; type: functional, cell-based
Homo sapiens = species on record: Homo sapiens; assay: Induction of cell membrane disruption in human erythrocytes cells assessed as induction of hemolysis at 0.098 to 50 uM incubated for 1 hr by fluorescence based assay relative to control; type: cell membranes
A549 [22] = assay: Inhibition of spheroids growth in human A549 cells 3D tumor spheroids at 5 uM treated on day 0 and measured on day 5 by CCK8 assay; type: functional, cell-based
A549 [23] = assay: Cytotoxicity in human A549 cells assessed as reduction in cell viability at 1.56 to 12.5 uM at 37 degC incubated for 24 hrs by CCK8 assay; type: functional, cell-based
A549 [24] = assay: Anti-migration activity in human A549 cells incubated for 12 hrs by crystal violet staining based transwell migration assay; type: functional, cell-based
[25] = Toxicity in mouse B16/F10 cells implanted BALB/C mouse assessed as effect on body weight at 8 mg/kg, ip dosed every other day for 10 days and measured every 5 days; type: organism-based; details: in vivo
A549 [26] = assay: Inhibition of colony formation n human A549 cells incubated for 15 days by crystal violet staining based assay; type: functional, cell-based
A549 [27] = assay: Induction of apoptosis in human A549 cells assessed as induction of caspase-3 activation at 2 uM incubated for 24 hrs using Ac-DEVD-pNA substrate; type: functional, cell-based
A549 [28] = assay: Inhibition of spheroids growth in human A549 cells 3D tumor spheroids assessed as induction of physical shrinking and peripheral collapse at 10 uM treated on day 0 and measured on day 5; type: functional, cell-based
A549 [29] = assay: Potency index, ratio of IC50 for lycosin-I to IC50 for test compound for cytotoxicity in human A549 cells assessed as reduction in cell viability at 0.78 to 50 uM incubated for 24 hrs by CCK8 assay; type: functional
A549 [30] = assay: Induction of cell membrane disruption in human A549 cells assessed as LDH release at 3.1 uM incubated for 30 mins by fluorescence based assay relative to control
A549 [31] = assay: Cytotoxicity in human A549 cells assessed as reduction in cell viability at 1 uM incubated for 24 hrs by CCK8 assay; type: functional, cell-based
A549 [32] = assay: Anti-migration activity in human A549 cells 3D tumor spheroids assessed as reduction in cell migration at 2.5 to 10 uM incubated for 48 hrs by gelatin based 3D spheroid based metastasis assay; type: functional
B16-F10 [33] = assay: Anti-metastasis activity in mouse B16/F10 cells implanted in BALB/C mouse assessed as reduction in lung metastatic nodules at 8 mg/kg, ip dosed every other day for 10 days and measured every 2 days by H and E staining based assay; type: functional, organism-based
A549 [34] = assay: Cytotoxicity in human A549 cells assessed as reduction in cell viability by trypan blue staining method; type: functional, cell-based
B16-F10 [35] = assay: Cytotoxicity in mouse B16/F10 cells assessed as reduction in cell viability incubated for 24 hrs by CCK8 assay; type: functional, cell-based; details: B16-F10, 24 h

| Stability [17] | Molecule | Activity (A549 [1]) | inhibition (B16-F10 [2]) | Activity (A549 [3]) | IC50 (HEK-293T) | IC50 (U-87 MG) | Activity (A549 [7]) | IC50 (A549 [8]) | IC50 (PC-3) | Activity (A549 [9]) | Activity (A549 [11]) | IC50 (MCF7) | TGI (B16-F10 [13]) | Activity (A549 [14]) | IC50 (L02) | IC50 (SW-620) | Activity [15] | IC50 (HeLa) | Activity (A549 [16]) | Activity (A549 [18]) | other results |
| --- | --- | --- | --- | --- | --- | --- | --- | --- | --- | --- | --- | --- | --- | --- | --- | --- | --- | --- | --- | --- | --- |
| Unstable | H-KGWFKAMKSIAKFIAKEKLKEHL-OH | 3.37% | inactive | 0.48% | 27.9 µM | 19.9 µM | 1.97% | 22.9 µM | 11 µM | inactive | inactive | 20.1 µM | inactive | inactive | 42.1 µM | 13.7 µM | Non-Toxic | 26.3 µM | inactive | 5.1% | Activity (A549 [4]): inactive; growth inhibition (GI) (A549 [5]): inactive; Activity (A549 [6]): 37%; Activity (A549 [10]): Active; inhibition (A549 [12]): inactive |
| Stable | CCCCCCCCCCCC(=O)N[C@@H](CCCCN)C(=O)NCC(=O)N[C@@H](Cc1c[nH]c2ccccc12)C(=O)N[C@@H](Cc1ccccc1)C(=O)N[C@@H](CCCCN)C(=O)N[C@@H](C)C(=O)N[C@@H](CCSC)C(=O)N[C@@H](CCCCN)C(=O)N[C@@H](CO)C(=O)N[C@H](C(=O)N[C@@H](C)C(=O)N[C@@H](CCCCN)C(=O)N[C@@H](Cc1ccccc1)C(=O)N[C@H](C(=O)N[C@@H](C)C(=O)N[C@@H](CCCCN)C(=O)N[C@@H](CCC(=O)O)C(=O)N[C@@H](CCCCN)C(=O)N[C@@H](CC(C)C)C(=O)N[C@@H](CCCCN)C(=O)N[C@@H](CCC(=O)O)C(=O)N[C@@H](Cc1cnc[nH]1)C(=O)N[C@@H](CC(C)C)C(=O)O)[C@@H](C)CC)[C@@H](C)CC (Lauroyl-KGWFKAMKSIAKFIAKEKLKEHL-OH) | 10.88% | Active | 0.91% | 2.2 µM | 1.9 µM | 31.84% | 2.2 to 2.6 µM | 2.2 µM | Active | Active | 1.7 µM | Active | Active | 3.9 µM | 2 µM | Non-Toxic | 2.8 µM | Dose-dependent effect | 59.4% | growth inhibition (GI) (A549 [19]): Active; Activity (A549 [20]): Active; Activity (A549 [21]): inactive; Activity (Homo sapiens): Active; growth inhibition (GI) (A549 [22]): Active; Activity (A549 [23]): Active; Activity (A549 [24]): Dose-dependent effect; Activity [25]: Non-Toxic; inhibition (A549 [26]): Dose-dependent effect; Activity (A549 [27]): Active; growth inhibition (GI) (A549 [28]): Active; Ratio IC50 (A549 [29]): 4 - 15; Activity (A549 [30]): 55%; Activity (A549 [31]): inactive; Activity (A549 [32]): Active; inhibition (B16-F10 [33]): Active; Activity (A549 [34]): Active; IC50 (B16-F10 [35]): 2 µM |
